Source: ChEMBL document CHEMBL3600310 (J Med Chem, 2015)
The source made the active and inactive calls. The rule behind the calls is not given here.

Legend:
MDA-MB-435 = assay: Cytotoxicity against human MDA-MB-435 cells after 72 hrs by MTT assay; assay type: functional, cell-based; settings: MDA-MB-435, 72 h
[1] = biological target: T1, DNA topoisomerase 1 (Homo sapiens) (UniProt P11387); assay: Inhibition of Top1 (unknown origin)-mediated pBR322 DNA cleavage using ethidium bromide staining at 50 uM after 15 mins by electrophoresis analysis
T1 sequence (whole entry): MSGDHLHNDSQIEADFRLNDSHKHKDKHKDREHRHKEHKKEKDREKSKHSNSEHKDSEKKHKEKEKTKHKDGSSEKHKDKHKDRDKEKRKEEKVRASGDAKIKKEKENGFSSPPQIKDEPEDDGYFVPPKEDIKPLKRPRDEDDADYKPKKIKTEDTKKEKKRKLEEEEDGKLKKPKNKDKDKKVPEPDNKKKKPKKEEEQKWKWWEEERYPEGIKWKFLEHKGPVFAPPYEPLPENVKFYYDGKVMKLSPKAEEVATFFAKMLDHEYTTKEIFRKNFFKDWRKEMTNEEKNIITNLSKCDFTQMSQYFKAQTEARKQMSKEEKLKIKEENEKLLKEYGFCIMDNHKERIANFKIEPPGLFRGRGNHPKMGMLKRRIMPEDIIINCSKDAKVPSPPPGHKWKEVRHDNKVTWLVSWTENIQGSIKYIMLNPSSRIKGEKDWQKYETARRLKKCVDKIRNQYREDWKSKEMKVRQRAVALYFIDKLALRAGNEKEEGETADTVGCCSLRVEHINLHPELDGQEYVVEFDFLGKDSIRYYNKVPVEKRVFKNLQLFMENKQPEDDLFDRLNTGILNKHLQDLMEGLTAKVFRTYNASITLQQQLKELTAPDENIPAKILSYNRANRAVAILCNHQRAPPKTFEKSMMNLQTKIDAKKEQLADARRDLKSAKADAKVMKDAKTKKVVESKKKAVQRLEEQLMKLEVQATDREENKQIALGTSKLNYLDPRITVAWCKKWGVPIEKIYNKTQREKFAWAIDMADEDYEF

HCT-116 [2] = assay: Cytotoxicity against human HCT116 cells after 72 hrs by MTT assay; assay type: functional, cell-based; settings: HCT-116, 72 h
A549 [3] = assay: Cytotoxicity against human A549 cells after 72 hrs by MTT assay; assay type: functional, cell-based; settings: A549, 72 h
[4] = biological target: T1, DNA topoisomerase 1 (Homo sapiens); assay: Inhibition of Top1 (unknown origin)-mediated pBR322 DNA cleavage using ethidium bromide staining at 100 uM after 15 mins by electrophoresis analysis
PC-3 = assay: cells; settings: Homo sapiens, PC-3, 72 h
Description: Cytotoxicity against human PC3 cells after 72 hrs by MTT assay

HCT-116 [5] = assay: Antitumor activity against human HCT116 cells xenografted in BALB/C mouse assessed as tumor growth inhibition at 2 mg/kg, ip for 5 days; assay type: functional, organism-based
[6] = Cytotoxicity against human SKHEP1 cells after 72 hrs by MTT assay; assay type: functional, cell-based; settings: SK-HEP1, 72 h
[7] = Cytotoxicity against human Bel7404 cells after 72 hrs by MTT assay; assay type: functional, cell-based; settings: BEL-7404, 72 h
K562 = assay: Cytotoxicity against human K562 cells after 72 hrs by MTT assay; assay type: functional, cell-based; settings: K562, 72 h
Tubulin (Homo sapiens) = Tubulin (Homo sapiens) (UniProt P68371+Q9H4B7+P0DPH7+P68366+Q13509+Q71U36+P04350+Q3ZCM7+P07437+P68363+Q9BQE3+Q6PEY2+Q13885+Q9BVA1+Q9BUF5); assay: Inhibition of brain tubulin (unknown origin) polymerization at 5 uM measured up to 15 to 30 mins
[8] = Cytotoxicity against human MV-3 cells after 72 hrs by MTT assay; assay type: functional, cell-based; settings: MV-3, 72 h
[9] = biological target: T1, DNA topoisomerase 1 (Homo sapiens); assay: Inhibition of Top1 (unknown origin)-mediated pBR322 DNA cleavage using ethidium bromide staining at 200 uM after 15 mins by electrophoresis analysis
[10] = Cytotoxicity against human SW579 cells after 72 hrs by MTT assay; assay type: functional, cell-based; settings: SW579, 72 h
NCI-H446 = assay: Cytotoxicity against human NCI-H446 cells after 72 hrs by MTT assay; assay type: functional, cell-based; settings: NCI-H446, 72 h
Tubulin = assay: Inhibition of brain tubulin (unknown origin) polymerization measured up to 15 to 30 mins; design: species or system Homo sapiens
[11] = biological target: DNA topoisomerase 2-alpha (Homo sapiens) (UniProt P11388); assay: Inhibition of Top2alpha (unknown origin)-mediated pBR322 DNA cleavage using ethidium bromide staining at 100 uM after 30 mins by electrophoresis analysis
DNA topoisomerase 2-alpha (Homo sapiens), sequence (P11388 whole entry): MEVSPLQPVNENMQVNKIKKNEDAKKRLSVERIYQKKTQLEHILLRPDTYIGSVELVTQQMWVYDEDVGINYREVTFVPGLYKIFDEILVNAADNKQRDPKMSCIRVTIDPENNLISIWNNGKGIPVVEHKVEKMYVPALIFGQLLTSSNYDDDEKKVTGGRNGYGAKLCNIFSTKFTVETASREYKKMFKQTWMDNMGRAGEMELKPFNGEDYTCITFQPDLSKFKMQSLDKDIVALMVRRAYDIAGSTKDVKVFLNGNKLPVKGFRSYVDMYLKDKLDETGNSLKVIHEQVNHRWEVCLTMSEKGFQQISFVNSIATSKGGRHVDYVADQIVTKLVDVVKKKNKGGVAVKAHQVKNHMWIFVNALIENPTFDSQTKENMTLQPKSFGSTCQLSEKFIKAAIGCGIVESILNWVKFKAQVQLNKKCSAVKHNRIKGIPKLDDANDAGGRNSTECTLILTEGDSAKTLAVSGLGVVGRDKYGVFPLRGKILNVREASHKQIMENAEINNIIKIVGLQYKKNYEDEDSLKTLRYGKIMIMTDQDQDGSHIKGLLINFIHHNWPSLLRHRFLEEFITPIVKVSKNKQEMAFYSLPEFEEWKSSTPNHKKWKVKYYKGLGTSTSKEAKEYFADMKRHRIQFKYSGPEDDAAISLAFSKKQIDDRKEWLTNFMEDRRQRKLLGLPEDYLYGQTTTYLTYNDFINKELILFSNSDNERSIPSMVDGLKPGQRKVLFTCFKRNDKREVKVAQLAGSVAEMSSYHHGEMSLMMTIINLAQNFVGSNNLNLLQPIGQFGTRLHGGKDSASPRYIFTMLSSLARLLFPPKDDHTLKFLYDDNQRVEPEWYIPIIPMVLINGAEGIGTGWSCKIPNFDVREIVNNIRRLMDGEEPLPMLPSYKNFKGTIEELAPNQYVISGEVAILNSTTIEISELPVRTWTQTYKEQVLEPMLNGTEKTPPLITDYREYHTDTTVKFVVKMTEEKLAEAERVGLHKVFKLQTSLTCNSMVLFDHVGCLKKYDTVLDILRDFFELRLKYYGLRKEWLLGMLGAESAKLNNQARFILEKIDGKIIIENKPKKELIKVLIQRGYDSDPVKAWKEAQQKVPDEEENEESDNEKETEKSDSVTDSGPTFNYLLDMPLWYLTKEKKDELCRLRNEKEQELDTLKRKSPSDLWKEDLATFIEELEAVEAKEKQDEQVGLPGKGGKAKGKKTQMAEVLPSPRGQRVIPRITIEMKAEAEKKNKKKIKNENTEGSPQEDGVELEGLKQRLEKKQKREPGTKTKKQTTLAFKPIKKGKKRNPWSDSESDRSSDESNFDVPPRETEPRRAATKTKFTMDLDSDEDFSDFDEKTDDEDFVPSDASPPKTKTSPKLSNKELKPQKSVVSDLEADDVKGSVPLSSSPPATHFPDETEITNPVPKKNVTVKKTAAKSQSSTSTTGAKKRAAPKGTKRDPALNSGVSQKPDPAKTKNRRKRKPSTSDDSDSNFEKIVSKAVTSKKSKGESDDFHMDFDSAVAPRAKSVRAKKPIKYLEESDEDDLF

A549 [12] = assay: Cell cycle arrest in human A549 cells assessed as accumulation at G2/M phase using propidium iodide staining at 5 uM after 12 hrs by flow cytometry analysis; assay type: functional, cell-based
Mus musculus [13] = assay: Toxicity in human A549 cells xenografted BALB/C mouse assessed as mortality at 2 mg/kg, ip for 5 days; assay type: organism-based; settings: in vivo, 120 h
A549 [14] = assay: Cell cycle arrest in human A549 cells assessed as accumulation at G2/M phase using propidium iodide staining at 5 uM after 36 hrs by flow cytometry analysis; assay type: functional
A549 [15] = assay: Induction of apoptosis in human A549 cells assessed as change in cell morphology at 5 uM after 36 hrs by light microscope analysis; assay type: functional, cell-based
A549 [16] = assay: Antitumor activity against human A549 cells xenografted in BALB/C mouse assessed as tumor growth inhibition at 2 mg/kg, ip for 5 days; assay type: functional, organism-based
Mus musculus [17] = assay: Toxicity in human A549 cells xenografted BALB/C mouse assessed as change in body weight at 2 mg/kg, ip for 5 days; assay type: organism-based; settings: in vivo, 120 h
A549 [18] = assay: Induction of apoptosis in human A549 cells assessed as apoptotic cells at 5 uM after 48 hrs by flow cytometry analysis; assay type: functional

| Compound | IC50 (MDA-MB-435) | inhibition [1] | IC50 (HCT-116 [2]) | IC50 (A549 [3]) | inhibition [4] | inhibition [9] | inhibition [11] | also measured |
| --- | --- | --- | --- | --- | --- | --- | --- | --- |
| COc1ccc2[nH]c3c(c2c1)CCN1C(=O)c2cc(F)ccc2SC31 (centres undefined) | 3900 nM | Active | 6500 nM | 1200 nM | Active |  |  |  |
| O=C1c2cc(Cl)ccc2SC2c3[nH]c4ccc(O)cc4c3CCN12 (centres undefined) | < 3 nM | Active | < 3 nM | 20 nM | Active | Active | Active | IC50 (PC-3): 370 nM; growth inhibition (GI) (HCT-116 [5]): Active; IC50 [6]: 2100 nM; IC50 [7]: < 3 nM; IC50 (K562): < 3 nM; inhibition (Tubulin (Homo sapiens)): 63%; IC50 [8]: 1300 nM; IC50 [10]: 6900 nM; IC50 (NCI-H446): > 200000 nM; IC50 (Tubulin): 4500 nM |
| O=C1c2ccccc2OC2c3[nH]c4ccc(O)cc4c3CCN12 (centres undefined) | 1400 nM |  | 2300 nM | 4000 nM |  | Active | inactive |  |
| O=C1c2ccccc2SC2c3[nH]c4ccccc4c3CCN12 (centres undefined) |  | Active |  |  | Active | Active | inactive |  |
| O=C1c2cc(O)ccc2OC2c3[nH]c4ccc(O)cc4c3CCN12 (centres undefined) | 800 nM |  | 1200 nM | 3800 nM |  | Active | Active | IC50 (PC-3): 840 nM; growth inhibition (GI) (HCT-116 [5]): Active; IC50 [6]: 1100 nM; IC50 [7]: 60 nM; IC50 (K562): < 3 nM; IC50 [8]: 1200 nM; IC50 [10]: 5150 nM; IC50 (NCI-H446): > 200000 nM |
| O=C1c2cc(O)ccc2SC2c3[nH]c4ccc(O)cc4c3CCN12 (centres undefined) | < 3 nM | Active | < 3 nM | 700 nM | Active | Active | Active | IC50 (PC-3): < 3 nM; growth inhibition (GI) (HCT-116 [5]): Active; IC50 [6]: 490 nM; IC50 [7]: < 3 nM; IC50 (K562): < 3 nM; IC50 [8]: 140 nM; IC50 [10]: 3500 nM; IC50 (NCI-H446): 16600 nM |
| CCC1=C[C@@H]2CN(C1)Cc1c([nH]c3ccccc13)[C@@](C(=O)OC)(c1cc3c(cc1OC)N(C)[C@H]1[C@@](O)(C(=O)OC)[C@H](OC(C)=O)[C@]4(CC)C=CCN5CC[C@]31[C@@H]54)C2 [VINORELBINE] |  |  |  |  |  |  |  | IC50 (Tubulin): 2000 nM |
| O=C1c2cc(Cl)ccc2OC2c3[nH]c4ccc(O)cc4c3CCN12 (centres undefined) | 60 nM |  | < 3 nM | 5200 nM |  | Active | inactive | IC50 (PC-3): 400 nM; Activity (A549 [12]): Active; Activity (Mus musculus [13]): Non-toxic; Activity (A549 [14]): 63.7%; growth inhibition (GI) (HCT-116 [5]): Active; IC50 [6]: 1800 nM; IC50 [7]: < 3 nM; Activity (A549 [15]): Active; IC50 (K562): < 3 nM; growth inhibition (GI) (A549 [16]): Active; inhibition (Tubulin (Homo sapiens)): 48%; Activity (Mus musculus [17]): Non-toxic; IC50 [8]: 1100 nM; IC50 [10]: 5560 nM; IC50 (NCI-H446): > 200000 nM; IC50 (Tubulin): 5300 nM; Activity (A549 [18]): 6.7% |
| O=C1c2ccccc2SC2c3[nH]c4ccc(O)cc4c3CCN12 (centres undefined) | < 3 nM |  | 40 nM | 50 nM |  | Active | inactive | Activity (A549 [12]): Active; Activity (Mus musculus [13]): Non-toxic; Activity (A549 [14]): 68.2%; growth inhibition (GI) (HCT-116 [5]): Active; Activity (A549 [15]): Active; growth inhibition (GI) (A549 [16]): Active; Activity (Mus musculus [17]): Non-toxic; Activity (A549 [18]): 6% |
| CC[C@@]1(O)C(=O)OCc2c1cc1n(c2=O)Cc2cc3ccccc3nc2-1 [CAMPTOTHECIN] | 1000 nM |  | 90 nM | 100 nM |  |  |  | IC50 (PC-3): 2500 nM; IC50 [6]: 960 nM; IC50 [7]: 140 nM; IC50 (K562): < 3 nM; IC50 [8]: < 3 nM; IC50 [10]: 710 nM; IC50 (NCI-H446): > 200000 nM |
| Nc1ccc2c(c1)C(=O)N1CCc3c([nH]c4ccc(O)cc34)C1O2 (centres undefined) | 600 nM |  | 500 nM | 29100 nM |  | Active | inactive |  |
| O=C1c2cc(Cl)ccc2SC2c3[nH]c4ccccc4c3CCN12 (centres undefined) | 38800 nM | Active | 29100 nM | 2100 nM | Active |  |  |  |
| COc1ccc2[nH]c3c(c2c1)CCN1C(=O)c2cc(Cl)ccc2SC31 (centres undefined) | 44100 nM | Active | 2700 nM | 2300 nM | Active |  |  |  |
| Cc1ccc2c(c1)OC1c3[nH]c4ccc(O)cc4c3CCN1C2=O (centres undefined) | < 3 nM |  | < 3 nM | 6500 nM |  |  |  | Activity (Mus musculus [13]): Non-toxic; growth inhibition (GI) (A549 [16]): Active; Activity (Mus musculus [17]): Non-toxic |
| COc1ccc2[nH]c3c(c2c1)CCN1C(=O)c2ccccc2S(=O)(=O)C31 (centres undefined) | > 200000 nM | Active | > 200000 nM | > 200000 nM | Active | Active | Active |  |
| O=C1c2ccccc2S(=O)(=O)C2c3[nH]c4ccccc4c3CCN12 (centres undefined) | > 200000 nM | Active | > 200000 nM | > 200000 nM | Active |  |  |  |
| O=C1c2cccnc2SC2c3[nH]c4ccccc4c3CCN12 (centres undefined) | > 200000 nM | Active | > 200000 nM | > 200000 nM | Active |  |  |  |
| O=C1c2cc(F)ccc2SC2c3[nH]c4ccccc4c3CCN12 (centres undefined) | > 200000 nM | Active | > 200000 nM | > 200000 nM | Active |  |  |  |
| O=C1c2ccccc2S(=O)(=O)C2c3[nH]c4ccc(O)cc4c3CCN12 (centres undefined) | > 200000 nM |  | 46000 nM | > 200000 nM |  |  | inactive |  |
| COc1ccc2c(c1)C(=O)N1CCc3c([nH]c4ccc(OC)cc34)C1S2 (centres undefined) | 122000 nM | Active | 20000 nM | 11300 nM | Active |  |  |  |
| COc1ccc2[nH]c3c(c2c1)CCN1C(=O)c2cc(Br)ccc2SC31 (centres undefined) | 84700 nM | Active | 2700 nM | 8200 nM | Active |  |  |  |
| COc1ccc2c(c1)C(=O)N1CCc3c([nH]c4ccc(O)cc34)C1S2 (centres undefined) | < 3 nM | Active | < 3 nM | 300 nM | Active | Active | inactive | IC50 (PC-3): 430 nM; IC50 [6]: 2200 nM; IC50 [7]: < 3 nM; IC50 (K562): < 3 nM; IC50 [8]: 1200 nM; IC50 [10]: 7300 nM; IC50 (NCI-H446): > 200000 nM |
| O=C1c2cc(F)ccc2SC2c3[nH]c4ccc(O)cc4c3CCN12 (centres undefined) | < 3 nM | Active | < 3 nM | 1200 nM | Active |  |  |  |
| COc1ccc2[nH]c3c(c2c1)CCN1C(=O)c2ccc(C(F)(F)F)cc2OC31 (centres undefined) | 26200 nM |  | 31700 nM | 50500 nM |  |  |  |  |
